“Also recorded” adds a separate entry of the source.
Tests used:
Type in all cases: cell-based, human
SCC9 cells [1] = test: CellTiter-Glo cell proliferation assay; conditions: relative to vehicle
Protocol: (§1) TGFβ Treatment and TGFBI Overexpression. For drug treatment experiments, SCC9 cells were grown in vehicle (4 μM HCl with 1 μg/mL BSA), TGFβ, or TGFβ-inhibitor. For TGFβ-treated cells, 10 ng/mL recombinant TGFβ1 (R&D Systems, Minneapolis, Minn.) or TGFβ3 (R&D systems) was applied. Cells in the TGFβ-inhibitor condition were either grown in 3:1 F12:DMEM (ThermoFisher Scientific) with 1 μM A-83-01 (Tocris Bioscience, Bristol, UK) or small airway basal medium (Lonza, Basel, Switzerland) with four inhibitors of the TGFβ pathway: 1 μM DMH-1, 1 μM A-83-01, 1 μM CHIR99021 (Tocris Bioscience), and 10 μM Y-27632 (Selleck Chemicals, Houston, Tex.). For scRNA-seq, cells in each condition were harvested 4 hours after treatment. […]
Cell Proliferation Assay. […] Cells were lysed on days 2, 4, and 6 by adding CTG reagent (Promega), and point luminescence was measured via the BioTek Synergy HTX Platereader (BioTek, Winooski, Vt.). […] CTG luminescence values for individual wells were normalized by subtracting background luminescence (mean luminescence values for wells containing PBS, with CTG reagent added), adjusting for 2 μM adenosine triphosphate (ATP) luminescence measured on the same 96-well plate, and normalizing by numbers of plated cells in each condition (as measured by T0 luminescence).
Cell Proliferation Assay. […] Error was calculated as SEM for a representative experiment.

SCC9 cells [2] = test: scRNA-seq p-EMT gene expression score of treated SCC9 cells; conditions: scRNA-seq 4 hours after treatment, relative to vehicle, TGFβ 10 ng/mL, inhibitors: 1 μM A-83-01, or DMH-1, A-83-01, CHIR99021 and Y-27632
Protocol: RNA-seq of Cell Lines. For scRNA-seq, cells were harvested, stained for viability, and sorted into 96-well plates, as described above. cDNA synthesis, library construction, and sequencing were also performed as described. For bulk RNA, RNA was isolated from 1,000 pooled cells using RNEasy Micro Kit (Qiagen).
as §1
Defining Cell and Sample Scores. […] However, such initial scores may be confounded by cell complexity, as cells with higher complexity have more genes detected (i.e. less zeros) and consequently would be expected to have higher cell scores for any gene-set. […] First, all analyzed genes are binned into 25 bins of equal size based on their aggregate expression levels (Ea). […]

SCC9 cells [3] = test: Matrigel invasion assay
Protocol: TGFβ Treatment and TGFBI Overexpression. For drug treatment experiments, SCC9 cells were grown in vehicle (4 μM HCl with 1 μg/mL BSA), TGFβ, or TGFβ-inhibitor. For TGFβ-treated cells, 10 ng/mL recombinant TGFβ1 (R&D Systems, Minneapolis, Minn.) or TGFβ3 (R&D systems) was applied. Cells in the TGFβ-inhibitor condition were either grown in 3:1 F12:DMEM (ThermoFisher Scientific) with 1 μM A-83-01 (Tocris Bioscience, Bristol, UK) or small airway basal medium (Lonza, Basel, Switzerland) with four inhibitors of the TGFβ pathway: 1 μM DMH-1, 1 μM A-83-01, 1 μM CHIR99021 (Tocris Bioscience), and 10 μM Y-27632 (Selleck Chemicals, Houston, Tex.). For scRNA-seq, cells in each condition were harvested 4 hours after treatment. For bulk RNA-seq, cells were harvested 2, 4, or 6 days after treatment and titrated for analysis. For matrigel invasion assay and cell proliferation assays, cells were maintained in the given conditions for the duration of the experiment.
Matrigel Invasion Assay. Matrigel invasion assay was performed as previously described (Puram et al., 2012). […] Cells on the lower surface of the membrane were fixed with methanol, stained with crystal violet, and counted in a blinded manner. […]
Matrigel Invasion Assay. […] Invaded cells in each well were counted in a blinded manner across four distinct high powered fields and averaged. Error was calculated as SEM for a representative experiment.

Molecule | relative proliferation (SCC9 cells [1]) | p-EMT program / p-EMT gene expression score (SCC9 cells [2]) | TGFβ response (invasiveness) after genetic inactivation of TGFBI (SCC9 cells [3]; SCC9 TGFBI CRISPR knockout cells versus mock infected) | relative invasiveness (SCC9 cells [3]; SCC9 cells, 24 hours, relative to vehicle)
TGFβ | reduced | coherent induction; also recorded: induce a p-EMT-like program | abrogated | increased
TGF4β3: recombinant TGFβ3 (R&D systems), CAF-related ligand (protein, UniProt P10600 301-412, looked up) Transforming growth factor …: ALDTNYCFRNLEENCCVRPLYIDFRQDLGWKWVHEPKGYYANFCSGPCPYLRSADTTHSTVLGLYNTLNPEASASPCCVPQDLEPLTILYYVGRTPKVEQLSNMVVKSCKCS |  | increased |  | 
